Data taken from article PMC4466200 (Bioorganic & Medicinal Chemistry Letters, 2015).

Key:
[1] = tested on: SARS-CoV (strain Frankfurt-1); format: cell-based
[2] = tested on: MERS-CoV (strain EMC/2012)
SARS-CoV or MERS-CoV = conditions: cited from earlier work
HIV-1 = conditions: CD4+ T cells; McGuigan's ProTide technology employed; cited from earlier work
HSV-2 = conditions: CD4+ T cells; McGuigan's ProTide technology employed; cited from earlier work
coronavirus = coronavirus replication in vitro; cited from earlier work
other viruses = conditions: needed to inhibit other viruses; cited from earlier work
in vitro = conditions: human

Structure (SMILES)	block of virus replication (in words) [1]	block of virus replication (in words) [2]	activity against SARS-CoV or MERS-CoV in vitro (in words) (SARS-CoV or MERS-CoV)	further results
Nc1nc2c(ncn2COCCO)c(=O)[nH]1 [Acyclovir, acyclovir]	had no effect	had no effect	none of these well known antiviral drugs exhibited any activity	concentration suppressing replication (HIV-1): 3 to 12 µmol/L; concentration suppressing replication (HSV-2): 3 to 12 µmol/L
NC(=O)c1ncn([C@@H]2O[C@H](CO)[C@@H](O)[C@H]2O)n1 [Ribavirin, ribavirin]				inhibitory concentration (coronavirus): 500 to 5000 µg/mL; inhibitory concentration (other viruses): 50 to 100 µg/mL
COc1nc(N)ncc1-c1cn(COCCO)cn1 [compound 2]	but not SARS-CoV	can block the replication of MERS-CoV		EC50 [1]: No effect; selectivity ratio (in vitro): > 3
Nc1nc(O)c2ncn(COC(CO)CO)c2n1 [ganciclovir]			none of these well known antiviral drugs exhibited any activity	
Nc1ccn([C@@H]2CS[C@H](CO)O2)c(=O)n1 [lamivudine]			none of these well known antiviral drugs exhibited any activity	
Cc1cn([C@H]2C[C@H](N=[N+]=[N-])[C@@H](CO)O2)c(=O)[nH]c1=O [zidovudine]			none of these well known antiviral drugs exhibited any activity	
